Assays:
[1] = target: Wee1-like protein kinase (Homo sapiens) (UniProt P30291); test: Inhibition of human recombinant full length WEE1 expressed in insect cells using MBP as substrate assessed as residual activity at 1 uM pretreated for 20 mins followed by [33P]-ATP addition measured after 120 mins by radiometric hotspot kinase assay relative to control; settings: time 140.0 min
[2] = Toxicity in zebra fish embryos assessed as lethality at 2.5 uM measured after 24 hrs relative to control; format: organism-based, Danio rerio; settings: zebrafish, in vivo, read-out: Activity
[3] = target: T1, Serine/threonine-protein kinase Chk1 (Homo sapiens) (UniProt O14757); test: Inhibition of human recombinant full length N-terminal His tagged CHK1 expressed in baculovirus infected Sf21 insect cells using CHKtide as substrate assessed as residual activity at 1 uM pretreated for 20 mins followed by [33P]-ATP addition measured after 120 mins by radiometric hotspot kinase assay relative to control; settings: time 140.0 min
T1 sequence (whole entry): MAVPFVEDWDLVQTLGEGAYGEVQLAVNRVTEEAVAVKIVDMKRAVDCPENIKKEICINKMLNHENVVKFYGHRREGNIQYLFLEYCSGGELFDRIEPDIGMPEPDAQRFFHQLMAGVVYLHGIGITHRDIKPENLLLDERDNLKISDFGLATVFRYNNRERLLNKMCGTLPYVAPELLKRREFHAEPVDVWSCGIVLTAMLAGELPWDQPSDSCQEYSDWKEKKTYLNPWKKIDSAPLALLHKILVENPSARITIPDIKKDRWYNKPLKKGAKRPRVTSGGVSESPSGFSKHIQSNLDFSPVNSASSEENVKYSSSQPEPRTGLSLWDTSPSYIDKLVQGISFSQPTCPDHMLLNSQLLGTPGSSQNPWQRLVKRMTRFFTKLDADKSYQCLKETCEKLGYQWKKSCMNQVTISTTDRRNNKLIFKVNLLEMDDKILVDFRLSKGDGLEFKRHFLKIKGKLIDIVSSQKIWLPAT

[4] = target: Vascular endothelial growth factor receptor 2 (Homo sapiens) (UniProt P35968); test: Inhibition of human recombinant C-terminal His6 tagged VEGFR2 (789 to 1356 residues) expressed in baculovirus infected insect cells assessed as residual activity at 1 uM pretreated for 20 mins followed by [33P]-ATP addition measured after 120 mins by radiometric hotspot kinase assay relative to control; settings: time 140.0 min
Chain of Vascular endothelial growth factor receptor 2 (Homo sapiens) (P35968 whole entry, the tested form may be a part): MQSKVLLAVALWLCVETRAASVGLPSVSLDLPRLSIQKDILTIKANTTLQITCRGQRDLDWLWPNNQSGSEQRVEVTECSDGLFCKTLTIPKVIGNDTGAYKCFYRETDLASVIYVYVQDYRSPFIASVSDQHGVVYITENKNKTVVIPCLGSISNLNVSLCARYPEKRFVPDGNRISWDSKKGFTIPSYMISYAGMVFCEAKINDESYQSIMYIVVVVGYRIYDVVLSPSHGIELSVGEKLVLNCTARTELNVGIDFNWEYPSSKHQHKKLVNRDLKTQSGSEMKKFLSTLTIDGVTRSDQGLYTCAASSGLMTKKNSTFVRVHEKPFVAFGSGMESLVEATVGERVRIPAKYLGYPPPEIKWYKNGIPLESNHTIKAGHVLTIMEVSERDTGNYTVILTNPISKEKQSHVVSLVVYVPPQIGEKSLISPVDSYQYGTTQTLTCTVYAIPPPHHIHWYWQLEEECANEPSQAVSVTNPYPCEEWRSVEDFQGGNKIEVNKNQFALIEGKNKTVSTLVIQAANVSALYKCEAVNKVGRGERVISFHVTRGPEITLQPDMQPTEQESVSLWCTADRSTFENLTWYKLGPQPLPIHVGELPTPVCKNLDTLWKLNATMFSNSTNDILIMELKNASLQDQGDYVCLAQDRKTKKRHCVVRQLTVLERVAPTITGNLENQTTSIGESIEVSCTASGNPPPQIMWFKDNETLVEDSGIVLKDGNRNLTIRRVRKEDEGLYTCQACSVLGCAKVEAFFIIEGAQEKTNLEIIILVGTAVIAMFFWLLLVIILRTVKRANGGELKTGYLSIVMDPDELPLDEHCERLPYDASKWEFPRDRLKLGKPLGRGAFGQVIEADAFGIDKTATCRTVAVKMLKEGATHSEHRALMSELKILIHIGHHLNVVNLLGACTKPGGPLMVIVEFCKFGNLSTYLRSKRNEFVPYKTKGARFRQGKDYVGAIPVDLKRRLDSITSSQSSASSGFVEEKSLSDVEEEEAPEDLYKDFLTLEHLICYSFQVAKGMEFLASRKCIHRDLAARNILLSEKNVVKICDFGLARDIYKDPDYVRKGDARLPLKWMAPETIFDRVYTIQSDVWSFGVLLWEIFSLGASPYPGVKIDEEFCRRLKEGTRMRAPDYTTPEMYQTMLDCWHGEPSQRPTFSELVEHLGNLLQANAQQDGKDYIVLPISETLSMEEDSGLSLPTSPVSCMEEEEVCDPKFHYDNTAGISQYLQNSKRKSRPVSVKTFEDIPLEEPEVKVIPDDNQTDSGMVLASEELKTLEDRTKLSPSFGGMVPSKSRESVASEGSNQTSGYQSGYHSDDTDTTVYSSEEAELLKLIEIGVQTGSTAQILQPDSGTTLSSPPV

[5] = Stability of the compound in DMEM measured after 48 hrs by DAD-HPLC method; format: physicochemical; settings: read-out: Stability
[6] = Permeability across basolateral to apical side in human Caco-2 cells at pH 7.4 at 1 uM; format: ADME, cell-based; settings: Caco-2, pH 7.4, read-out: permeability
[7] = target: T2, Serine/threonine-protein kinase Nek1 (Homo sapiens) (UniProt Q96PY6); test: Inhibition of human NEK1 using myelin basic protein as substrate assessed as residual activity at 1 uM in presence of [gamma-33P]-ATP by radiometric hotspot kinase assay relative to control
T2 sequence (whole entry): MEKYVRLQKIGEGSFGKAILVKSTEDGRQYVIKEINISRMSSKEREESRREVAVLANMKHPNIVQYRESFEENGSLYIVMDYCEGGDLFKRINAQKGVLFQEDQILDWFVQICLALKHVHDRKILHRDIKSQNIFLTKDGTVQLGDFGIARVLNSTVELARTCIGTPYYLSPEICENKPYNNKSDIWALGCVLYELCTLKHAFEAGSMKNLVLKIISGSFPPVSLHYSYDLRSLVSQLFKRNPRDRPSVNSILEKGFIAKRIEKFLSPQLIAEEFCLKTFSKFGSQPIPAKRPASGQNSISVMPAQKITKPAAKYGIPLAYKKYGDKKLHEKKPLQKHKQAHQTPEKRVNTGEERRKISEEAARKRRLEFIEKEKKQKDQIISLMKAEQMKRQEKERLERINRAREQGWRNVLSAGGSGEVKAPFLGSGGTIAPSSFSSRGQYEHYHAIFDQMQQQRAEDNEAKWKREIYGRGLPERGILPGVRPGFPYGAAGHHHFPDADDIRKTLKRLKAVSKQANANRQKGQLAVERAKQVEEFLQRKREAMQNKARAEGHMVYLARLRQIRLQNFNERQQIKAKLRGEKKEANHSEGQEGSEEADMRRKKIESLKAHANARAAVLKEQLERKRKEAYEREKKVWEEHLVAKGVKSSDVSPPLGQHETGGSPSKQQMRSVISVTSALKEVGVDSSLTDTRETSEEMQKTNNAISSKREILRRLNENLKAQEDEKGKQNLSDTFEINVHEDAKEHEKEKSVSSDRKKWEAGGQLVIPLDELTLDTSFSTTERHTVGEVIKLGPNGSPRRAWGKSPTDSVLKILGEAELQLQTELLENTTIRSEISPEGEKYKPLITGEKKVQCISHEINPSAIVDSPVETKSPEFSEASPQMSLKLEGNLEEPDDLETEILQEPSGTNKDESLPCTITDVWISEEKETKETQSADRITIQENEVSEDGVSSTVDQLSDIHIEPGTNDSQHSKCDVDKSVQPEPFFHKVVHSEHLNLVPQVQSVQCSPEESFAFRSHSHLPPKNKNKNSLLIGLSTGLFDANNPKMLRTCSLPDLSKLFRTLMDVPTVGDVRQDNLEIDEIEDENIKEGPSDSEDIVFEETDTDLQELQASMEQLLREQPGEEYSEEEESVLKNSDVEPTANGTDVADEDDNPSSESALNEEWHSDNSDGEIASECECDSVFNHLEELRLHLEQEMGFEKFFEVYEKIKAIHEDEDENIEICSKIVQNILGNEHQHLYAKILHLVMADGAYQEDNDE

[8] = target: T3, Serine/threonine-protein kinase Nek5 (Homo sapiens) (UniProt Q6P3R8); test: Inhibition of human recombinant NEK5 assessed as residual activity at 1 uM pretreated for 20 mins followed by [33P]-ATP addition measured after 120 mins by radiometric hotspot kinase assay relative to control; settings: time 140.0 min
T3 sequence (whole entry): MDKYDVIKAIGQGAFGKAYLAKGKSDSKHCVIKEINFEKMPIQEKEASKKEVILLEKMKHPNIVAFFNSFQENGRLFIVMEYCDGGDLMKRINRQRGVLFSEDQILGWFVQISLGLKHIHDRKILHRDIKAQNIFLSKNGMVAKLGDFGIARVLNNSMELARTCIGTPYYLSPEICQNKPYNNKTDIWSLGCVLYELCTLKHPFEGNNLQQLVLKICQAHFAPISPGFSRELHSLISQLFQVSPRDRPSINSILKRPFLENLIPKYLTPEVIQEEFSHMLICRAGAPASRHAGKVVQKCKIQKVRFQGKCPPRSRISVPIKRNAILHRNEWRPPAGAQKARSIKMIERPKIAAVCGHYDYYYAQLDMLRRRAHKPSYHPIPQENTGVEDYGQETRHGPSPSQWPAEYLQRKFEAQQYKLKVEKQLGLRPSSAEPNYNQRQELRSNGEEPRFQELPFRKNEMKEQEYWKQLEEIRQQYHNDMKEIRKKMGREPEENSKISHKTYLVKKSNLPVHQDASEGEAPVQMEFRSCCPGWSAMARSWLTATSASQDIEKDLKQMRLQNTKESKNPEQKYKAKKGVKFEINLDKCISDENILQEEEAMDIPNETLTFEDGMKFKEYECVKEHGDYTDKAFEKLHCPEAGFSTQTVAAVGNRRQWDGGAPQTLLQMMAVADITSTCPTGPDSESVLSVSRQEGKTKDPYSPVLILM

Chain of Wee1-like protein kinase (Homo sapiens) (P30291 whole entry, looked up): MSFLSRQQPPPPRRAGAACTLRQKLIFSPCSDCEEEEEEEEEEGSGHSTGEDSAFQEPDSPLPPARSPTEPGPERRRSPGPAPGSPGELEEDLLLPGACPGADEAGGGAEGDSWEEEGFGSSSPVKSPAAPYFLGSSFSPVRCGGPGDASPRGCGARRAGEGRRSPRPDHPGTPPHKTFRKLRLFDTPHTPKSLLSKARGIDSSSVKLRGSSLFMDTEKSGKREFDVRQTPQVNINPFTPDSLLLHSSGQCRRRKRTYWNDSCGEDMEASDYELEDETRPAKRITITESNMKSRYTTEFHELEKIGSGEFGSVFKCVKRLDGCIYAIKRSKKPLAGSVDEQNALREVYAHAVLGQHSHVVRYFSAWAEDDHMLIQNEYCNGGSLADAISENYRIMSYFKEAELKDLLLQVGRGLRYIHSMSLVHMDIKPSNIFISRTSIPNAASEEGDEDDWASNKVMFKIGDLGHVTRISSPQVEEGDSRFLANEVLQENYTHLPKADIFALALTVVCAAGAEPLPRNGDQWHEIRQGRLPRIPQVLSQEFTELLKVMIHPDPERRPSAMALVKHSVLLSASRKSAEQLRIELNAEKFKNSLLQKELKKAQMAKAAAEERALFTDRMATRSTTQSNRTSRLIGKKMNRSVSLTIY

With COC(=O)c1cccc(-c2cnc3[nH]cc(-c4cccnc4)c3c2)c1 the Activity [1] was 82.1%, the mortality at 24 h, 2.5 µM [2] was 100% and the Activity [3] was 48.5%. It also gave an Activity [4] of 34.3%, a remaining at 48 h [5] of 103% and a Papp B→A at 1 µM [6] of 0.04 ×10⁻⁶ cm/s. The Activity [7] was -0.6% and the Activity [8] was 10.4%.
